These results are taken from ChEMBL document CHEMBL1201862, “PubChem BioAssay data set” (2004).

Some test systems named below: 786-0; A498; ACHN; BT-549; HCC 2998; HCT-116; HOP-62; KM12; M14; Malme-3M; NCI-H226; OVCAR-3; OVCAR-8; RPMI-8226; SF-295; SK-MEL-28; SK-MEL-5; SK-OV-3; SW-620; RXF 393.
Holding throughout (experiment): NCI anticancer screen, dose series, 48 h

Each structure is given as a SMILES string.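 All cell lines were grown in 96-well plates and treated with compound for 48 hours. At the GI50, growth is halved.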 The source made the active and inactive calls. Rule as the data show it: active = GI50 up to about 1.1 µM and inactive = higher.

As to `Nc1nc2c(ncn2Cc2ccccc2CO)c(=O)[nH]1`, the GI50 in the experiment on 786-0, in the experiment on A498, in the experiment with ACHN, in the experiment on BT-549, with HCC 2998 and in the experiment on HCT-116 was > 100 µM (inactive) each time. The GI50 in the experiment on HOP-62, in the experiment with KM12, in the experiment on M14, in the experiment on Malme-3M, in the experiment on NCI-H226 and in the experiment on OVCAR-3 was > 100 µM (inactive) in each case. For the same compound, the GI50 in the experiment on OVCAR-8, in the experiment with RPMI-8226, in the experiment on SF-295, in the experiment on SK-MEL-28, with SK-MEL-5 and in the experiment with SK-OV-3 was > 100 µM (inactive) each time. In the experiment on SW-620, the GI50 is > 100 µM (inactive).
In the case of `O=C1CCCCCCCCCCC1CN1CCOCC1` (stereo not given), the GI50 in the experiment with 786-0, with ACHN, with BT-549, in the experiment on HCC 2998, with HCT-116 and with HOP-62 was > 100 µM (inactive) each time. Moreover, the GI50 with KM12, in the experiment with M14, with Malme-3M, in the experiment with NCI-H226, with OVCAR-3 and in the experiment with OVCAR-8 was > 100 µM (inactive) throughout. For the same compound, the GI50 is > 100 µM (inactive) in the experiment with RPMI-8226; > 100 µM (inactive) with RXF 393; > 100 µM (inactive) with SF-295; > 100 µM (inactive) in the experiment with SK-MEL-28; 13.9 µM (inactive) in the experiment with SK-MEL-5; > 100 µM (inactive) with SK-OV-3. Further, the GI50 in the experiment with SW-620 is > 100 µM (inactive).
As for `O=C(NNS(=O)(=O)c1ccc(Br)cc1)c1ccc(Cl)cc1NC(=O)C12CC3CC(CC(C3)C1)C2`, the GI50 in the experiment on 786-0 was 19.5 µM (inactive); in the experiment with A498, 15.2 µM (inactive); in the experiment with ACHN it was 16 µM (inactive); in the experiment with BT-549 it was 16.7 µM (inactive); with HCT-116 it was 21.2 µM (inactive); in the experiment with HOP-62, 19.8 µM (inactive). Further, the GI50 in the experiment on KM12 was 16.4 µM (inactive); in the experiment with M14, 15 µM (inactive); with Malme-3M, 14.8 µM (inactive); in the experiment with NCI-H226, 16.1 µM (inactive); in the experiment on OVCAR-3, 11.6 µM (inactive); in the experiment on OVCAR-8 it was 13.6 µM (inactive). Moreover, the GI50 with RPMI-8226 was 4.49 µM (inactive); with RXF 393, 15.7 µM (inactive); in the experiment with SF-295, 13.9 µM (inactive); in the experiment with SK-MEL-5, 10.9 µM (inactive); with SK-OV-3, 16.4 µM (inactive); in the experiment with SW-620, 19.5 µM (inactive).
Turning to `Cc1cc(/N=C/c2ccc(C#N)cc2)n(-c2ccccc2)n1`, the GI50 is 80.5 µM (inactive) in the experiment on 786-0; > 100 µM (inactive) with ACHN; 93.3 µM (inactive) with BT-549; > 100 µM (inactive) in the experiment on HCC 2998; 49.1 µM (inactive) in the experiment on HCT-116; 68.9 µM (inactive) in the experiment on HOP-62. Moreover, the GI50 with KM12 was 56.1 µM (inactive); in the experiment on M14 it was 55.7 µM (inactive); with Malme-3M, > 100 µM (inactive); with NCI-H226, > 100 µM (inactive); in the experiment with OVCAR-3 it was 38.9 µM (inactive); in the experiment with OVCAR-8, 69 µM (inactive). The GI50 in the experiment with RPMI-8226 is 26.2 µM (inactive); in the experiment with RXF 393, > 100 µM (inactive); with SF-295 it was 81.7 µM (inactive); in the experiment on SK-MEL-28, > 100 µM (inactive); in the experiment on SK-MEL-5, 36 µM (inactive); in the experiment with SK-OV-3, 51.3 µM (inactive). The GI50 in the experiment on SW-620 is 49.4 µM (inactive).
`O=C1Cc2c([nH]c3c(Cl)cccc23)-c2ccccc2N1`: the GI50 with 786-0, in the experiment on A498, in the experiment on ACHN, with BT-549, in the experiment on HCT-116 and in the experiment on HOP-62 was > 100 µM (inactive) in each case. Further, the GI50 in the experiment with KM12, with M14, in the experiment on Malme-3M, with NCI-H226, in the experiment with OVCAR-3 and in the experiment with OVCAR-8 was > 100 µM (inactive) in each case. Besides, the GI50 in the experiment with RPMI-8226, with SF-295, in the experiment with SK-MEL-28, with SK-MEL-5, in the experiment on SK-OV-3 and in the experiment with SW-620 was > 100 µM (inactive) each time.
In the case of `N#CC(NC12CC3CC(CC(C3)C1)C2)c1ccc2c(c1)OCO2` (stereo not given), the GI50 with 786-0, with ACHN, with BT-549, in the experiment on HCC 2998, with HCT-116 and in the experiment on HOP-62 was > 100 µM (inactive) each time. Further, the GI50 in the experiment on KM12, with M14, in the experiment on Malme-3M, in the experiment with NCI-H226, with OVCAR-3 and in the experiment on OVCAR-8 was > 100 µM (inactive) in each case. In addition, the GI50 in the experiment on RPMI-8226, with RXF 393, in the experiment on SF-295, with SK-MEL-28, with SK-MEL-5 and in the experiment on SK-OV-3 was > 100 µM (inactive) in each case. Further, the GI50 in the experiment with SW-620 was > 100 µM (inactive).
Regarding `C=C1CC(Cn2cc(C)c(=O)[nH]c2=O)(c2ccc(Cl)cc2)OC1=O` (stereo not given), the GI50 with 786-0 is 1.56 µM (inactive); in the experiment on A498 it was 5.94 µM (inactive); in the experiment with ACHN it was 3.83 µM (inactive); in the experiment on BT-549, 1.51 µM (inactive); in the experiment with HCC 2998, 3.8 µM (inactive); in the experiment with HCT-116, 1.65 µM (inactive). For the same compound, the GI50 in the experiment with HOP-62 is 15.8 µM (inactive); in the experiment on KM12, 13.6 µM (inactive); with M14, 1.22 µM (inactive); in the experiment on Malme-3M it was 1.88 µM (inactive); in the experiment on NCI-H226, 13.4 µM (inactive); with OVCAR-3 it was 3.6 µM (inactive). Further, the GI50 in the experiment on OVCAR-8 was 3.64 µM (inactive); in the experiment with RPMI-8226 it was 0.414 µM (active); in the experiment with SF-295 it was 9.64 µM (inactive); in the experiment on SK-MEL-28 it was 2.18 µM (inactive); with SK-MEL-5, 2.67 µM (inactive); in the experiment with SK-OV-3 it was 14.9 µM (inactive). Also, the GI50 with SW-620 is 1.44 µM (inactive).
For `O=C(CC(C(=O)O)N1CCOCC1)c1ccccc1` (stereo not given), the GI50 with 786-0 is 15.1 µM (inactive); in the experiment with A498, 25.1 µM (inactive); in the experiment with ACHN it was 16 µM (inactive); in the experiment with BT-549, 18.6 µM (inactive); with HCT-116 it was 14 µM (inactive); with HOP-62 it was 27.4 µM (inactive). Besides, the GI50 in the experiment on M14 was 14.6 µM (inactive); with Malme-3M it was 18.8 µM (inactive); in the experiment on NCI-H226, > 100 µM (inactive); with OVCAR-3, 20 µM (inactive); with OVCAR-8, 30.8 µM (inactive); in the experiment with RPMI-8226 it was 12.7 µM (inactive). The GI50 in the experiment with RXF 393 is 18.4 µM (inactive); in the experiment with SF-295, 41.2 µM (inactive); with SK-MEL-28, 19.5 µM (inactive); in the experiment on SK-MEL-5 it was 19.6 µM (inactive); in the experiment on SK-OV-3 it was 37 µM (inactive); in the experiment on SW-620, 19.8 µM (inactive).
As to `CC(C)(C)c1cc(C(C)(C)C)c(P=C(Cl)Cl)c(C(C)(C)C)c1` (stereo not given), the GI50 with 786-0, in the experiment with A498, in the experiment on ACHN, in the experiment with BT-549, in the experiment on HCC 2998 and in the experiment with HCT-116 was > 100 µM (inactive) in each case. Also, the GI50 in the experiment with HOP-62, in the experiment with KM12, with M14, in the experiment on Malme-3M, with NCI-H226 and in the experiment on OVCAR-3 was > 100 µM (inactive) throughout. Further, the GI50 in the experiment on OVCAR-8, with RPMI-8226, in the experiment on SF-295, with SK-MEL-28, in the experiment on SK-MEL-5 and with SK-OV-3 was > 100 µM (inactive) in each case. In addition, the GI50 in the experiment with SW-620 was > 100 µM (inactive).
Regarding `O=C1NC(N2CCCCC2)=N/C1=C\c1ccco1`, the GI50 in the experiment on 786-0, with ACHN, in the experiment on BT-549, with HCC 2998, in the experiment with HCT-116 and in the experiment on HOP-62 was > 100 µM (inactive) each time. The GI50 in the experiment with KM12 is > 100 µM (inactive); in the experiment on M14 it was > 100 µM (inactive); in the experiment on Malme-3M, > 100 µM (inactive); with NCI-H226 it was 67.9 µM (inactive); in the experiment on OVCAR-3 it was > 100 µM (inactive); in the experiment on OVCAR-8, > 100 µM (inactive). Besides, the GI50 in the experiment on RPMI-8226, with RXF 393, in the experiment with SF-295, in the experiment on SK-MEL-28, in the experiment on SK-MEL-5 and in the experiment on SK-OV-3 was > 100 µM (inactive) throughout. Further, in the experiment on SW-620, the GI50 is > 100 µM (inactive).
For `Cc1ccc(S(=O)(=O)OC2CC(C(C)(C)C)CCC2c2ccccc2)cc1` (stereo not given), the GI50 in the experiment with 786-0 is > 100 µM (inactive); in the experiment on A498 it was > 100 µM (inactive); in the experiment on ACHN it was 54.6 µM (inactive); in the experiment on BT-549, > 100 µM (inactive); in the experiment on HCT-116 it was 50 µM (inactive); in the experiment with HOP-62 it was 53 µM (inactive). Further, the GI50 with KM12 is 99.8 µM (inactive); in the experiment on M14 it was 88.7 µM (inactive); with NCI-H226, > 100 µM (inactive); in the experiment with OVCAR-3, 93.5 µM (inactive); with OVCAR-8, > 100 µM (inactive); in the experiment with RPMI-8226, 17.9 µM (inactive). Moreover, the GI50 in the experiment with RXF 393 is 89.7 µM (inactive); in the experiment with SF-295 it was 42.1 µM (inactive); with SK-MEL-28, > 100 µM (inactive); in the experiment with SK-MEL-5, 79.8 µM (inactive); in the experiment with SK-OV-3 it was > 100 µM (inactive); in the experiment on SW-620 it was > 100 µM (inactive).
